Key:
[1] = AUC (0 to 24 hrs) in healthy human lung epithelial lining fluid at 200 mg, po every 12 hrs for 5 days; type: ADME, organism-based; design: time < 24 hr, dose 200 mg, route oral
[2] = AUC (0 to 24 hrs) in healthy human plasma at 200 mg, po every 12 hrs for 5 days; type: ADME, organism-based; design: dose 200 mg, time < 24 hr, route oral
[3] = Cmax in healthy human alveolar cell at 200 mg, po every 12 hrs for 5 days; type: ADME, organism-based, Lung, Pneumocyte; design: dose 200 mg, route oral; settings: alveolar cells
[4] = AUC (0 to 24 hrs) in healthy human alveolar cell at 200 mg, po every 12 hrs for 5 days; type: ADME, organism-based, Pneumocyte; design: time < 24 hr, dose 200 mg, route oral; settings: alveolar cells
[5] = Cmax in healthy human plasma at 200 mg, po every 12 hrs for 5 days; type: ADME, organism-based; design: dose 200 mg, route oral
[6] = Cmax in healthy human lung epithelial lining fluid assessed as hydroxyitraconazole at 200 mg, po every 12 hrs for 5 days; type: ADME, organism-based; design: dose 200 mg, route oral; settings: in vivo

- AUC at 24 h [1]: 7400 ng·h/mL
- AUC at 24 h [2]: 34400 ng·h/mL
- Cmax [3]: 500 ng/mL
- AUC at 24 h [4]: 101000 ng·h/mL
- Cmax [5]: 2100 ng/mL
- Cmax [6]: 5500 ng/mL
SMILES: CCC(C)n1ncn(-c2ccc(N3CCN(c4ccc(OCC5COC(Cn6cncn6)(c6ccc(Cl)cc6Cl)O5)cc4)CC3)cc2)c1=O (stereo unspecified) [ITRACONAZOLE]
